Tests used:
left carotid artery = assay: Balloon angioplasty of the left carotid artery (restenosis); type: in vivo, Male Sprague-Dawley rats
Method: The data presented in Table IV show the effect of the pV compound bpV(bipy) on restenosis. Male Sprague-Dawley rats (325-350 g) were anaesthetized with Rogarsetic, a mixture of ketamine hydrochloride and xylazine hydrochloride. The animals were divided into two groups of 14-31 rats that underwent balloon angioplasty of the left carotid artery, with or without treatment (108). The treated group received bpV (bipy) (10 mg/kg/i.p. b.i.d.) for 14 days, starting on the day of the angioplasty. Every animal in each group underwent balloon angioplasty of the left external carotid whereas the contra-lateral carotid served as a control for each animal. The left carotid artery balloon angioplasty was performed under aseptic conditions. The left external carotid was isolated and an arteriotomy was performed. A 2F Fogarty arterial embolectomy catheter was then inserted in the left common carotid and positioned near the aortic arch. The balloon was then inflated and retracted with a twisting motion to its insertion point. This procedure was repeated twice and the external carotid was ligated. There were no differences in the lumina (L), intima (I), media (M), the ratio of I/M and calculated value of (M−L/P) as a measure of neointimal proliferation (NIP) between normal, non-ballooned carotid artery of treated and non-treated rats, serving as controls (data not shown).

ETs (ET-1, ET-2, ET-3) = assay: Plasma endothelin levels after insulin (RIA); type: in vivo; details: rats; two minutes after insulin 1.5 μg/100 g b.w.; no bpV(phen)
Method: The data presented in Table III show the effect of bpV(phen) on the plasmatic levels of ETs. […] Two minutes following insulin administration (1.5 μg/100 g b.w, or vehicle), the plasma levels of ETs were determined. Insulin administration induced a strong increase of seric ET concentration (54). […] In addition, bpV(phen) decreased the insulin-stimulated levels of plasmatic ETs below control levels. […] ETs (ET-1, ET-2, ET-3) were measured by RIA (Amersham kit RPA 555) after lyophilization and extraction on C2 columns (500 mg). Results are mean ±SEM, p<0.0209, control (n=4) vs Insulin, pV (n=3).

Rat aorta rings = assay: Rat aortic ring assay (cell/microvessel migration in fibrin gel); type: cell-based
Text: FIG. 3: Micrographs of the cell migration from aortic rings embedded in fibrin (×12).
FIG. 4: Quantification of the cell migration from aortic rings in the presence of orthovanadate (plain bars); bpV(phen) (light gray bars); and bpV(pic) (dark gray bars). The control appears as an empty bar. Means and standard errors of the means are presented.
Rat aorta rings were embedded in fibrin matrix as previously described (107). Thoracic aortas excised from adult rats were rinsed in Hank's balanced salt solution (HBSS), and cleansed of periadventitial. One-mm long aortic rings were sectioned and rinsed in culture medium. Each of the aortic rings were then embedded in fibrin gel matrix. Migration of microvessels in fibrin gel was quantified by measuring the distance from the external surface of rat aortic rings towards the migrating vessels. Measurements were performed at day 15 by digitizing morphometry with a NIH image analysis system (FIGS. 3 and 4).

HUVECs = assay: HUVEC differentiation and organization into tubular-like structures in fibrin matrix; type: cell-based, Human; parameters: key to cords / tubes / Stell. struct.: †: Dead cells
Method: Alternatively, HUVECs cultured in a fibrin matrix can form 3-dimensional tubular-like structures in the presence of serum (103). This assay was performed in the presence of either bpV(phen), bpv(pic) or vanadate to assess the influence of each one of these compounds on HUVEC differentiation and organization (Table 1). HUVECs were seeded on the bottom of gelatin-coated wells at high density to provide a confluent monolayer at 48 hours.
Then, 50 000 HUVECs/ml were embedded in fibrinogen solution prior to polymerization. The fibrin matrix was covered with culture medium containing the molecule to be tested, while culture medium without any of these molecules served as controls. Cell behavior was observed periodically by phase contrast microscopy.

[1] = test system: vitelline membrane of chick embryos; assay: Embryonic vascularization test (EVT) ex ovo; type: in vivo; details: for approximate IC50, neovascularization (regardless of the scoring system): per methylcellulose disc
Text: FIG. 2: A and B show an anti-angiogenic response to bpV(phen), orthovanadate (Van) and protamine (Prot) using a vascularization test on the vitelline membrane of chick embryos. Each point represents a minimum of 15 embryos (15 to 28).
The normal development of a chick embryo involves the formation of an external vascular system which is located in the vitelline membrane and which carries nutrients from the vitellus (yolk of the egg) to the developing embryo. When placed onto the vitelline membrane, anti-angiogenic substances can inhibit blood vessel development in the vitelline membrane. To facilitate access to the vitelline membrane, chick embryos were transferred to a sterile culture box (Petri dish) and placed in a humidity- and temperature-controlled incubator. Embryos could then develop in this ex ovo condition for several days.
An aliquot of the tested compound was mixed with a methylcellulose solution and allowed to air-dry into thin discs. Methylcellulose forms an inert matrix from which the tested compound can diffuse slowly. Methylcellulose discs containing the tested compound were placed on the external border of the vascular perimeter of the vitelline membrane where the angiogenic process was still active.
The effects of the discs containing the tested compound on proximal vascular development were, in all cases, compared with those of discs containing control buffer. The discs were placed on the embryos' vitelline membrane on Day 0 or Day 1 of the ex ovo growth process; at this point, only beginnings of the main blood vessels are invading the vitellus. The embryos were then put in culture conditions until vascularization was assessed (approximately 24 h). Control buffer- and compound-containing discs were in all cases added simultaneously on the vitelline membrane of the same embryo. Both discs were arranged in a symmetrical fashion with respect to the cephalo-caudal axis of the embryo in order to minimize inter-individual variations when comparing the tested compounds with controls.
[…] After one day in culture, the level of vascularization in the area covered by the discs was graded by a pair of scientists in the usual blind fashion. To facilitate the location of the discs, black O-rings were placed around them just after their placement on the vitelline membrane. The evaluation scale for the EVTs was based on two different scoring systems.
Blood vessel formation was assessed in a blind fashion. The areas of the vitelline membranes that lay beneath the methylcellulose discs were scored for the degree of vascularization, using two scoring systems (“N/+” or “1-2-3”). The following selection criteria were used:
A score of “N” for “Normal” was attributed when all the following conditions were met:
Blood vessels in the evaluated area grew along their path with no abnormal deviation. Collateral branching density was normal and the growth path of the lateral branches was also normal.
A score of “+” was attributed when at least one of the following conditions was met:
1-2-3 Grading Scale System:
A score of 3 was attributed when the following conditions were met:
A score of 2 was attributed when at least one of the following conditions was met:
A score of 1 was attributed when at least one of the following conditions was met:
A score of 3 meant that blood vessel development was normal whereas a score of 1 indicated the greatest degree of angiostatic activity.

[2] = test system: Human umbilical vein endothelial cells (HUVECs); details: read-out: approximate IC50, endothelial cell proliferation; 96 hours in culture
Method: Each experiment was performed in triplicate. The culture medium was changed daily.

[3] = 10 mg/kg/i.p. b.i.d. for 14 days, ballooned left carotid
[4] = treated vs non-treated, 10 mg/kg/i.p. b.i.d. 14 days
[5] = anti-angiogenic effect on stellate structures

Compound: [K+].[O]=[V-]12([O][O]1)[O][O]2.c1ccc(-c2ccccn2)nc1 [bpV(bipy), potassium bisperoxo(2,2′-bipyridyl) oxovanadate]
- I (intima) (left carotid artery; [3]): 0.112 mm^2
- I/M (left carotid artery; [3]): 1.086
- L (lumina) (left carotid artery; [3]): 0.112 mm^2
- M (media) (left carotid artery; [3]): 0.104
- NIP (neointimal proliferation) (left carotid artery; [3]): 0.045 mm
- decrease in NIP (left carotid artery; [4]): 32%
- decrease in the I/M ratio (left carotid artery; [4]): 32%
- increase in the opening of the L (left carotid artery; [4]): 28%
- reduction in the thickness of the I (left carotid artery; [4]): 21%

Compound: Insulin: insulin administered to rats to induce an increase of ET concentration
- Plasma endothelins (ETs (ET-1, ET-2, ET-3)): 253.10 pg/mL

Compound: [O]=[V]([O-])([O-])[O-] [orthovanadate]
- cell migration from aortic rings (Rat aorta rings; 3.5 μM): no effect
- cell migration from aortic rings (Rat aorta rings; 25 μM): partial inhibition
- structures observed by phase contrast microscopy (HUVECs; 10 μM): cords were still apparent
- Stell. struct. (HUVECs; 25 μM): †
- cords (HUVECs; 25 μM): †
- structures observed by phase contrast microscopy (HUVECs; 25 μM): dead cells were sparsely distributed
- tubes (HUVECs; 25 μM): †
- times less potent than bpV(phen) (HUVECs; [5]): ≥ 5 times
- times less potent than bpV(pic) (HUVECs; [5]): at least 3 times
- Anti-angio.activity 1 to 3 (1: no angiogenesis; 3: normal angiogenesis) ([1]; 0.001 μg, Assay 3): 2.8
- Anti-angio.activity % (proportion of embryos showing an anti-angiogenic response) ([1]; 0.001 μg, Assay 3): 7%
- Anti-angio.activity 1 to 3 (1: no angiogenesis; 3: normal angiogenesis) ([1]; 0.001 μg, Assay 5): 2.8
- Anti-angio.activity % (proportion of embryos showing an anti-angiogenic response) ([1]; 0.001 μg, Assay 5): 7%
- Anti-angio.activity 1 to 3 (1: no angiogenesis; 3: normal angiogenesis) ([1]; 0.01 μg, Assay 3): 2.4
- Anti-angio.activity % (proportion of embryos showing an anti-angiogenic response) ([1]; 0.01 μg, Assay 3): 24%
- Anti-angio.activity 1 to 3 (1: no angiogenesis; 3: normal angiogenesis) ([1]; 0.01 μg, Assay 5): 2.4
- Anti-angio.activity % (proportion of embryos showing an anti-angiogenic response) ([1]; 0.01 μg, Assay 5): 24%
- Anti-angio.activity 1 to 3 (1: no angiogenesis; 3: normal angiogenesis) ([1]; 0.1 μg, Assay 3): 2.4
- Anti-angio.activity % (proportion of embryos showing an anti-angiogenic response) ([1]; 0.1 μg, Assay 3): 28%
- Anti-angio.activity 1 to 3 (1: no angiogenesis; 3: normal angiogenesis) ([1]; 0.1 μg, Assay 5): 2.4
- Anti-angio.activity % (proportion of embryos showing an anti-angiogenic response) ([1]; 0.1 μg, Assay 5): 28%
- Anti-angio.activity 1 to 3 (1: no angiogenesis; 3: normal angiogenesis) ([1]; 1 μg, Assay 3): 2.0
- Anti-angio.activity % (proportion of embryos showing an anti-angiogenic response) ([1]; 1 μg, Assay 3): 70%
- Anti-angio.activity 1 to 3 (1: no angiogenesis; 3: normal angiogenesis) ([1]; 1 μg, Assay 4): 1.7
- Anti-angio.activity % (proportion of embryos showing an anti-angiogenic response) ([1]; 1 μg, Assay 4): 57%
- Anti-angio.activity 1 to 3 (1: no angiogenesis; 3: normal angiogenesis) ([1]; 1 μg, Assay 5): 1.9
- Anti-angio.activity % (proportion of embryos showing an anti-angiogenic response) ([1]; 1 μg, Assay 5): 64%
- approximate IC50, neovascularization (regardless of the scoring system) [1]: ~0.6 µg

Compound: Protamine
- Anti-angio.activity 1 to 3 (1: no angiogenesis; 3: normal angiogenesis) ([1]; 5 μg, Assay 1): 2.3
- Anti-angio.activity % (proportion of embryos showing an anti-angiogenic response) ([1]; 5 μg, Assay 1): 23%
- Anti-angio.activity 1 to 3 (1: no angiogenesis; 3: normal angiogenesis) ([1]; 5 μg, Assay 4): 2.3
- Anti-angio.activity % (proportion of embryos showing an anti-angiogenic response) ([1]; 5 μg, Assay 4): 9%
- Anti-angio.activity 1 to 3 (1: no angiogenesis; 3: normal angiogenesis) ([1]; 5 μg, Assay 5): 2.3
- Anti-angio.activity % (proportion of embryos showing an anti-angiogenic response) ([1]; 5 μg, Assay 5): 16%
- Anti-angio.activity 1 to 3 (1: no angiogenesis; 3: normal angiogenesis) ([1]; 10 μg, Assay 4): 2.1
- Anti-angio.activity % (proportion of embryos showing an anti-angiogenic response) ([1]; 10 μg, Assay 4): 54%
- Anti-angio.activity 1 to 3 (1: no angiogenesis; 3: normal angiogenesis) ([1]; 10 μg, Assay 5): 2.1
- Anti-angio.activity % (proportion of embryos showing an anti-angiogenic response) ([1]; 10 μg, Assay 5): 54%
- Anti-angio.activity 1 to 3 (1: no angiogenesis; 3: normal angiogenesis) ([1]; 20 μg, Assay 1): 2.0
- Anti-angio.activity % (proportion of embryos showing an anti-angiogenic response) ([1]; 20 μg, Assay 1): 46%
- Anti-angio.activity 1 to 3 (1: no angiogenesis; 3: normal angiogenesis) ([1]; 20 μg, Assay 2): 1.5
- Anti-angio.activity % (proportion of embryos showing an anti-angiogenic response) ([1]; 20 μg, Assay 2): 80%
- Anti-angio.activity 1 to 3 (1: no angiogenesis; 3: normal angiogenesis) ([1]; 20 μg, Assay 3): 1.5
- Anti-angio.activity % (proportion of embryos showing an anti-angiogenic response) ([1]; 20 μg, Assay 3): 79%
- Anti-angio.activity 1 to 3 (1: no angiogenesis; 3: normal angiogenesis) ([1]; 20 μg, Assay 4): 1.8
- Anti-angio.activity % (proportion of embryos showing an anti-angiogenic response) ([1]; 20 μg, Assay 4): 80%
- Anti-angio.activity 1 to 3 (1: no angiogenesis; 3: normal angiogenesis) ([1]; 20 μg, Assay 5): 1.7
- Anti-angio.activity % (proportion of embryos showing an anti-angiogenic response) ([1]; 20 μg, Assay 5): 71%
- Anti-angio.activity 1 to 3 (1: no angiogenesis; 3: normal angiogenesis) ([1]; 30 μg, Assay 4): 1.8
- Anti-angio.activity % (proportion of embryos showing an anti-angiogenic response) ([1]; 30 μg, Assay 4): 67%
- Anti-angio.activity 1 to 3 (1: no angiogenesis; 3: normal angiogenesis) ([1]; 30 μg, Assay 5): 1.8
- Anti-angio.activity % (proportion of embryos showing an anti-angiogenic response) ([1]; 30 μg, Assay 5): 67%
- approximate IC50, neovascularization (regardless of the scoring system) [1]: ~11 µg

Compound: O=C(O)c1ccccn1.OO.OO.[K+].[K+].[O]=[V] [bpV(pic), potassium bisperoxo(pyridine-2-carboxylato)oxovanadate]
- cell migration from aortic rings (Rat aorta rings; 10-25 μM): inhibition was seen
- structures observed by phase contrast microscopy (HUVECs; 1, 2 and 3.5 μM): cords and tubes were observed
- IC50 [2]: ~3.5 µM

— patent US20030055106A1, “Therapeutic uses of peroxometallic compounds” (priority 1999, published 2003)
